Reference: patent US4622328A, “Phenyl-naphthyridines and drugs containing them, particularly anti-ulcer drugs” (priority 1984, dated 1986)
Like-named read-outs stand apart in the source and are kept apart here.

Assays:
oedema (carragenin) = assay: Anti-inflammatory activity: inhibition of carragenin oedema of the paw; assay type: in vivo, male rats of CD (Charles River) strain
Experimental: Batches of 6 to 12 male rats of CD (Charles River) strain, weighing 120-130 g, receive for food and drink a 9 o/oo solution of sodium chloride and 200 o/oo of glucose 18 hours before the test.
The volume of the paw is measured by plethysmography at regular intervals.
The active dose 50 and its limits are determined from the linear regression. The significance of the results is given by the Student "t" test (*, ** and *** for p<0.05, p<0.01 and […]).

[1] = test system: gastric lesions (ulcers) provoked by nonsteroid antiinflammatory agent; assay: Anti-ulcer activity: protection of gastric lesions provoked by a medicamentous ulcer forming agent (nonsteroid antiinflammatory agent); assay type: in vivo, male rats of OFA (Iffa Credo) strain; settings: for ED50: Rattus norvegicus, po, read-out: AD50 (active dose 50)
Experimental: (§1) Batches of 10 to 30 male rats of OFA (Iffa Credo) strain, weighing 160-180 g, are placed on a water diet 24 hours before the oral administration of the product studied. Thirty minutes later, a medicamentous ulcer-forming agent or a necrosing agent (for example absolute ethanol) is administered by the oral route at doses which cause in the control animals a maximum gastric ulceration. The stomachs are removed, according to the test, 6 and 1 hr. respectively after the last treatment. The gastric lesions are then assessed macroscopically (dimensioning and measurement of the size of the ulcers).
(§2) They are expressed in the form of % of inhibition of the ulcers. The active dose 50 is determined graphically.

[2] = test system: painful reactions (phenylbenzoquinone); assay: Analgesic activity: inhibition of painful reactions (twists and stretches) to phenylbenzoquinone; assay type: in vivo, male mice of CDl (Charles River) strain; settings: for DA50 (active dose): VO, linear regression
Experimental: Batches of 6 to 18 male mice of CDl (Charles River) strain, weighing 18 to 22 g, receive by the intraperitoneal route a water-alcohol 0.02% solution of phenylbenzoquinone 1 hour after treatment by the oral route. The number of painful reactions is counted from the 5th to the 10th minute.
The active dose and its limits are determined from the linear regression.

in vivo = settings: fasting Sprague Dawley rat, oral route
[3] = test system: gastric lesions (ulcers) provoked by ethanol; assay: Anti-ulcer activity: protection of gastric lesions provoked by a necrosing agent (ethanol); assay type: in vivo, male rats of OFA (Iffa Credo) strain; settings: for ED50: Rattus norvegicus, po, read-out: AD50 (active dose 50)
Experimental: as §1, §2

total acid secretion = assay: Anti-secretory activity: inhibition of total acid secretion after pyloric ligature; assay type: in vivo, male rats of OFA (Iffa Credo) strain; settings: for ED50: Rattus norvegicus, 4 h, read-out: AD50 (active dose 50); for % of inhibition of the total acid secretion: 4 hours
Experimental: A pyloric ligature is made under ether anaesthesia on batches of 5 male rats of OFA (Iffa Credo) strain weighing 180-200 g. The product studied is administered by the oral or sub-cutaneous route at the time of the ligature. The animals are sacrificed 4 hours later and the acidity of the gastric fluid collected is titered by 0.1N sodium hydroxide to pH 4 and 7.
They are expressed in percentage of inhibition of the total acid secretion. The active dose 50 is determined from the linear regression. The significance is given by the Student "t" test (* and ** for p<0.05 and p<0.01).

[4] = VO, NSAID lesions, determined graphically
[5] = VO, ethanol lesions, determined graphically
[6] = 0.06 mg.kg-1 VO, ethanol lesions
[7] = 0.25 mg.kg-1 VO, ethanol lesions

**Q.** For `O=c1ccc2cccnc2n1-c1cccc(C(F)(F)F)c1` [Example 4, 1-(3-trifluoromethylphenyl)1,2-dihydro 2-oxo 1,8-naphthyridine], which “% of inhibition of the oedema” value (oedema (carragenin); 4 mg.kg-1 VO) is on record?
**A.** 14%

**Q.** And the “% of inhibition of the oedema” value (oedema (carragenin); 16 mg.kg-1 VO)?
**A.** 21%

**Q.** And the “% of inhibition of the oedema” value (oedema (carragenin); 64 mg.kg-1 VO)?
**A.** 80%

**Q.** And the “% of inhibition of the oedema” value (oedema (carragenin); 128 mg.kg-1 VO)?
**A.** 70%

**Q.** And the “% of inhibition of the oedema” value (oedema (carragenin); 256 mg.kg-1 VO)?
**A.** 83%

**Q.** What about the “% of protection of lesions provoked” value ([1]; 4 mg.kg-1 VO, NSAID lesions) of the same molecule?
**A.** 11%

**Q.** And the “% of protection of lesions provoked” value ([1]; 8 mg.kg-1 VO, NSAID lesions)?
**A.** 40%

**Q.** What about the “% of protection of lesions provoked” value ([1]; 16 mg.kg-1 VO, NSAID lesions) of the same molecule?
**A.** 68%

**Q.** And the “% of protection of lesions provoked” value ([1]; 32 mg.kg-1 VO, NSAID lesions)?
**A.** 81%

**Q.** What about the ED50 [1, 4] of the same molecule?
**A.** 12 mg/kg

**Q.** What about the “% of inhibition of the painful reactions” value ([2]; 16 mg.kg-1 VO) of the same molecule?
**A.** 6%

**Q.** And the “% of inhibition of the painful reactions” value ([2]; 32 mg.kg-1 VO)?
**A.** 39%

**Q.** And the “% of inhibition of the painful reactions” value ([2]; 64 mg.kg-1 VO)?
**A.** 37%

**Q.** What about the “% of inhibition of the painful reactions” value ([2]; 128 mg.kg-1 VO) of the same molecule?
**A.** 79%

**Q.** What about the “% of inhibition of the painful reactions” value ([2]; 256 mg.kg-1 VO) of the same molecule?
**A.** 93%

**Q.** And the “DA50 (active dose)” value [2]?
**A.** 62.0 mg · kg - 1

**Q.** And the LD50 (in vivo)?
**A.** > 256 mg/kg

**Q.** What about the “% of protection of lesions provoked” value ([3]; 1 mg.kg-1 VO, ethanol lesions) of the same molecule?
**A.** 6%

**Q.** And the “% of protection of lesions provoked” value ([3]; 2 mg.kg-1 VO, ethanol lesions)?
**A.** 52%

**Q.** And the “% of protection of lesions provoked” value ([3]; 4 mg.kg-1 VO, ethanol lesions)?
**A.** 87%

**Q.** What about the ED50 [3, 5] of the same molecule?
**A.** 2.2 mg/kg

**Q.** For `Cc1cc2cccnc2n(-c2ccccc2)c1=O` [Example 11, 1-phenyl 1,2-dihydro 2-oxo 3-methyl 1,8-naphthyridine], which “% of protection of lesions provoked” value ([1]; 0.25 mg.kg-1 VO, NSAID lesions) is on record?
**A.** 1%

**Q.** What about the “% of protection of lesions provoked” value ([1]; 0.5 mg.kg-1 VO, NSAID lesions) of the same molecule?
**A.** 34%

**Q.** And the “% of protection of lesions provoked” value ([1]; 1 mg.kg-1 VO, NSAID lesions)?
**A.** 75%

**Q.** What about the “% of protection of lesions provoked” value ([1]; 2 mg.kg-1 VO, NSAID lesions) of the same molecule?
**A.** 100%

**Q.** What about the ED50 [1] of the same molecule?
**A.** 0.67 mg/kg

**Q.** What about the ED50 (total acid secretion; sc) of the same molecule?
**A.** 0.065 mg/kg

**Q.** What about the “% of inhibition of the total acid secretion” value (total acid secretion; administered SC, 0.03 mg.kg-1) of the same molecule?
**A.** 37%

**Q.** And the “% of inhibition of the total acid secretion” value (total acid secretion; administered SC, 0.06 mg.kg-1)?
**A.** 46%

**Q.** And the “% of inhibition of the total acid secretion” value (total acid secretion; administered SC, 0.125 mg.kg-1)?
**A.** 63%

**Q.** And the “% of inhibition of the total acid secretion” value (total acid secretion; administered SC, 0.25 mg.kg-1)?
**A.** 76%

**Q.** What about the “% of inhibition of the total acid secretion” value (total acid secretion; administered SC, 0.5 mg.kg-1) of the same molecule?
**A.** 81%

**Q.** What about the “% of protection of lesions provoked” value [3, 6] of the same molecule?
**A.** 86%

**Q.** What about the “% of protection of lesions provoked” value [3, 7] of the same molecule?
**A.** 95%

**Q.** And the “% of protection of lesions provoked” value ([3]; 1 mg.kg-1 VO, ethanol lesions)?
**A.** 94%

**Q.** What about the “% of protection of lesions provoked” value ([3]; 4 mg.kg-1 VO, ethanol lesions) of the same molecule?
**A.** 98%

**Q.** And the ED50 [3]?
**A.** < 0.06 mg/kg

**Q.** Which “% of inhibition of the oedema” value (oedema (carragenin); 4 mg.kg-1 VO) does the source give for `Cc1cc2cccnc2n(-c2cccc(C(F)(F)F)c2)c1=O` [Examples 3 & 10, 1-(3-trifluoromethylphenyl)1,2-dihydro 2-oxo 3-methyl 1,8-naphthyridine] here?
**A.** 10%

**Q.** What about the “% of inhibition of the oedema” value (oedema (carragenin); 16 mg.kg-1 VO) of the same molecule?
**A.** 31%

**Q.** And the “% of inhibition of the oedema” value (oedema (carragenin); 64 mg.kg-1 VO)?
**A.** 47%

**Q.** What about the “% of inhibition of the oedema” value (oedema (carragenin); 128 mg.kg-1 VO) of the same molecule?
**A.** 61%

**Q.** What about the “% of inhibition of the oedema” value (oedema (carragenin); 256 mg.kg-1 VO) of the same molecule?
**A.** 64%

**Q.** And the ED50 (oedema (carragenin); Rattus norvegicus, po, VO, linear regression, read-out: AD50 (active dose 50))?
**A.** 73.3 mg/kg

**Q.** And the “% of protection of lesions provoked” value ([1]; 2 mg.kg-1 VO, NSAID lesions)?
**A.** 15%

**Q.** What about the “% of protection of lesions provoked” value ([1]; 4 mg.kg-1 VO, NSAID lesions) of the same molecule?
**A.** 22%

**Q.** What about the “% of protection of lesions provoked” value ([1]; 8 mg.kg-1 VO, NSAID lesions) of the same molecule?
**A.** 62%

**Q.** And the “% of protection of lesions provoked” value ([1]; 16 mg.kg-1 VO, NSAID lesions)?
**A.** 87%

**Q.** And the “% of protection of lesions provoked” value ([1]; 32 mg.kg-1 VO, NSAID lesions)?
**A.** 95%

**Q.** And the ED50 [1, 4]?
**A.** 6.5 mg/kg

**Q.** And the ED50 (total acid secretion; administered SC, linear regression)?
**A.** 0.72 mg/kg

**Q.** What about the ED50 (total acid secretion; po, administered VO, linear regression) of the same molecule?
**A.** 0.7 mg/kg

**Q.** What about the “% of inhibition of the total acid secretion” value (total acid secretion; administered SC, 0.25 mg.kg-1) of the same molecule?
**A.** 4%

**Q.** What about the “% of inhibition of the total acid secretion” value (total acid secretion; administered SC, 0.5 mg.kg-1) of the same molecule?
**A.** 38%

**Q.** What about the “% of inhibition of the total acid secretion” value (total acid secretion; administered SC, 1 mg.kg-1) of the same molecule?
**A.** 65%

**Q.** What about the “% of inhibition of the total acid secretion” value (total acid secretion; administered SC, 2 mg.kg-1) of the same molecule?
**A.** 90%

**Q.** And the “% of inhibition of the total acid secretion” value (total acid secretion; administered VO, 0.125 mg.kg-1)?
**A.** 2%

**Q.** And the “% of inhibition of the total acid secretion” value (total acid secretion; administered VO, 0.25 mg.kg-1)?
**A.** 18%

**Q.** And the “% of inhibition of the total acid secretion” value (total acid secretion; administered VO, 0.5 mg.kg-1)?
**A.** 59%

**Q.** And the “% of inhibition of the total acid secretion” value (total acid secretion; administered VO, 1 mg.kg-1)?
**A.** 56%

**Q.** What about the “% of inhibition of the total acid secretion” value (total acid secretion; administered VO, 2 mg.kg-1) of the same molecule?
**A.** 75%

**Q.** And the “% of inhibition of the painful reactions” value ([2]; 8 mg.kg-1 VO)?
**A.** 6%

**Q.** What about the “% of inhibition of the painful reactions” value ([2]; 16 mg.kg-1 VO) of the same molecule?
**A.** 30%

**Q.** And the “% of inhibition of the painful reactions” value ([2]; 32 mg.kg-1 VO)?
**A.** 26%

**Q.** What about the “% of inhibition of the painful reactions” value ([2]; 64 mg.kg-1 VO) of the same molecule?
**A.** 57%

**Q.** What about the “% of inhibition of the painful reactions” value ([2]; 128 mg.kg-1 VO) of the same molecule?
**A.** 58%

**Q.** What about the “% of inhibition of the painful reactions” value ([2]; 256 mg.kg-1 VO) of the same molecule?
**A.** 73%

**Q.** What about the “DA50 (active dose)” value [2] of the same molecule?
**A.** 69.4 mg · kg - 1

**Q.** And the LD50 (in vivo)?
**A.** > 256 mg/kg

**Q.** What about the “% of protection of lesions provoked” value [3, 6] of the same molecule?
**A.** 0%

**Q.** What about the “% of protection of lesions provoked” value ([3]; 0.125 mg.kg-1 VO, ethanol lesions) of the same molecule?
**A.** 17%

**Q.** And the “% of protection of lesions provoked” value [3, 7]?
**A.** 42%

**Q.** What about the “% of protection of lesions provoked” value ([3]; 0.5 mg.kg-1 VO, ethanol lesions) of the same molecule?
**A.** 64%

**Q.** And the “% of protection of lesions provoked” value ([3]; 1 mg.kg-1 VO, ethanol lesions)?
**A.** 79%

**Q.** And the ED50 [3, 5]?
**A.** 0.37 mg/kg
